Here are results for 24 compounds from patent publication US20260035387A1 (BIOGEN MA INC., priority 2022, published 2026).

The subject of this test is mutant Huntington (HTT) protein. Description: HTT Mutant HTRF iPSC assay (mHTT protein lowering). Type of test: cell-based. The conditions noted are these: human iPSC derived from a HTT patient with a poly-Q49 mutation.

The term IC50 denotes the concentration needed to halve the response being measured. `COc1cc2nn(C)cc2cc1NC(=O)c1cc2nc(N3CCN(C)CC3)ccc2o1` [Compound 263, N-(6-methoxy-2-methyl-2H-indazol-5-yl)-5-(4-methylpiperazin-1-yl)furo[3,2-b]pyridine-2-carboxamide] gave an IC50 below 100 nM.

Turning to `COc1c(NC(=O)c2cc3ccc(C4CCN(C)C4)nc3s2)cc2cn(C)nc2c1F` (single isomer, unassigned) [Compound 265], the IC50 is below 100 nM.

For the compound `CN1CCC(c2ccc3nc(C(=O)Nc4cc(F)c5nn(C)cc5c4)sc3n2)CC1` [Compound 246, N-(7-fluoro-2-methyl-2H-indazol-5-yl)-5-(1-methylpiperidin-4-yl)thiazolo[5,4-b]pyridine-2-carboxamide], the IC50 lay within 100 to 1000 nM.

As for `CCN1CCN(c2ccc3cc(C(=O)Nc4cn5cc(C)nc5c(C(F)F)n4)sc3n2)CC1` [Compound 253, N-(8-(difluoromethyl)-2-methylimidazo[1,2-a]pyrazin-6-yl)-6-(4-ethylpiperazin-1-yl)thieno[2,3-b]pyridine-2-carboxamide], the IC50 is below 100 nM.

For the compound `Cc1cn2cc(NC(=O)c3cc4ccc(N5C[C@@H](C)N(C)[C@@H](C)C5)nc4s3)cc(F)c2n1` [Compound 69, N-(8-fluoro-2-methylimidazo[1,2-a]pyridin-6-yl)-6-((3R,5S)-3,4,5-trimethylpiperazin-1-yl)thieno[2,3-b]pyridine-2-carboxamide], the IC50 was below 100 nM.

`CC(=O)N1C[C@@H]2CN(c3ccc4cc(C(=O)Nc5ccc6nc(C)cn6c5)sc4n3)C[C@@H]2C1` [Compound 29, 6-((3aR,6aS)-5-acetylhexahydropyrrolo[3,4-c]pyrrol-2(1H)-yl)-N-(2-methylimidazo[1,2-a]pyridin-6-yl)thieno[2,3-b]pyridine-2-carboxamide]: the IC50 is 1000 to 9000 nM.

Take `Cc1cn2cc(NC(=O)c3cc4ccc(OC5C[C@@H](C)N[C@@H](C)C5)nc4s3)cc(F)c2n1` (mixture of isomers) [Compound 156]: the IC50 was below 100 nM.

`Cc1cn2cc(NC(=O)c3cc4ncc(N5CC(C)(N)C5)nc4s3)cc(F)c2n1` [Compound 258, 3-(3-amino-3-methylazetidin-1-yl)-N-(8-fluoro-2-methylimidazo[1,2-a]pyridin-6-yl)thieno[2,3-b]pyrazine-6-carboxamide] returned a half-maximal inhibitory concentration (IC50) below 100 nM.

`CCN1CCN(c2ccc3cc(C(=O)Nc4cn5cc(C)nc5c(C)n4)sc3n2)CC1` [Compound 240, N-(2,8-dimethylimidazo[1,2-a]pyrazin-6-yl)-6-(4-ethylpiperazin-1-yl)thieno[2,3-b]pyridine-2-carboxamide]: the IC50 was below 100 nM.

Regarding `Cc1cn2cc(NC(=O)c3nc4ccc(C5C[C@@H](C)N[C@@H](C)C5)nc4s3)cc(F)c2n1` (stereo partly drawn) [Compound 139, 5-[(2S,6R)-2,6-dimethyl-4-piperidyl]-N-(8-fluoro-2-methyl-imidazo[1,2-a]pyridin-6-yl)thiazolo[5,4-b]pyridine-2-carboxamide], the IC50 is below 100 nM.

In the case of `Cc1cn2cc(NC(=O)c3cc4ccc(N5CC6CCC(N(C)C)CC6C5)nc4s3)ccc2n1` (stereo not drawn) [Compound 32, 6-(5-(dimethylamino)octahydro-2H-isoindol-2-yl)-N-(2-methylimidazo[1,2-a]pyridin-6-yl)thieno[2,3-b]pyridine-2-carboxamide], the IC50 was in the range of 1000 to 9000 nM.

In turn, `Cc1cn2cc(NC(=O)c3cc4ccc(N5CC[C@@H](N(C)C)C5)nc4s3)nc(C(F)F)c2n1` [Compound 250, (R)-N-(8-(difluoromethyl)-2-methylimidazo[1,2-a]pyrazin-6-yl)-6-(3-(dimethylamino)pyrrolidin-1-yl)thieno[2,3-b]pyridine-2-carboxamide] showed an IC50 below 100 nM.

Regarding `Cc1cn2cc(NC(=O)c3cc4nc(N5CCN(C)CC5)ccc4o3)cc(F)c2n1` [Compound 165, N-(8-fluoro-2-methylimidazo[1,2-a]pyridin-6-yl)-5-(4-methylpiperazin-1-yl)furo[3,2-b]pyridine-2-carboxamide], the IC50 is below 100 nM.

As to `COc1cc2nn(C)cc2cc1NC(=O)c1nc2ccc(N3CC[C@H](N4CCC4)C3)nc2s1` [Compound 121, (S)-5-(3-(azetidin-1-yl)pyrrolidin-1-yl)-N-(6-methoxy-2-methyl-2H-indazol-5-yl)thiazolo[5,4-b]pyridine-2-carboxamide], the IC50 was in the range of 100 to 1000 nM.

In turn, `Cc1cn2cc(NC(=O)c3cc4ccc(NC5CC6CCCN6C5)nc4s3)ccc2n1` (stereo not drawn) [Compound 12, 6-((hexahydro-1H-pyrrolizin-2-yl)amino)-N-(2-methylimidazo[1,2-a]pyridin-6-yl)thieno[2,3-b]pyridine-2-carboxamide] showed an IC50 of 100 to 1000 nM.

`COc1cn2nc(C)cc2cc1NC(=O)c1cc2nc(N3CCC4(CCCN4C)C3)ccc2o1` (single isomer, unassigned) [Compound 175] displayed an IC50 below 100 nM.

In the case of `Cc1cn2cc(NC(=O)c3cc4ccc(N5CCN(C)CC5)nc4s3)cc(F)c2n1` [Compound 77, N-(8-fluoro-2-methylimidazo[1,2-a]pyridin-6-yl)-6-(4-methylpiperazin-1-yl)thieno[2,3-b]pyridine-2-carboxamide], the half-maximal inhibitory concentration (IC50) was below 100 nM.

Consider `Cc1cn2cc(NC(=O)c3cc4ccc(N5CCC6CNCC65)nc4s3)cc(F)c2n1` (stereo not drawn) [Compound 201, N-(8-fluoro-2-methylimidazo[1,2-a]pyridin-6-yl)-6-(hexahydropyrrolo[3,4-b]pyrrol-1(2H)-yl)thieno[2,3-b]pyridine-2-carboxamide], for which the IC50 is below 100 nM.

`Cc1cn2cc(NC(=O)c3nc4ccc(C5CCN(C)C5)nc4s3)nc(C)c2n1` (stereo not drawn) [Compound 138, N-(2,8-dimethylimidazo[1,2-a]pyrazin-6-yl)-5-(1-methylpyrrolidin-3-yl)thiazolo[5,4-b]pyridine-2-carboxamide] had an IC50 of 100 to 1000 nM.

Regarding `COc1cn2nc(C)cc2cc1NC(=O)c1cc2ccc(N3CCC(N(C)C)C3)nc2s1` (stereo not drawn) [Compound 190, 6-(3-(dimethylamino)pyrrolidin-1-yl)-N-(6-methoxy-2-methylpyrazolo[1,5-a]pyridin-5-yl)thieno[2,3-b]pyridine-2-carboxamide], the IC50 was below 100 nM.

In turn, `Cc1cn2cc(NC(=O)c3cc4ccc(Nc5ccc(N6CC(C)(C)C6)cc5)nc4s3)ccc2n1` [Compound 44, 6-((4-(3,3-dimethylazetidin-1-yl)phenyl)amino)-N-(2-methylimidazo[1,2-a]pyridin-6-yl)thieno[2,3-b]pyridine-2-carboxamide] came in with an IC50 of 1000 to 9000 nM.

In the case of `Cc1cn2cc(NC(=O)c3cc4ccc(C5CNC(C)C5)nc4s3)cc(F)c2n1` (stereo not drawn) [Compound 179, N-(8-fluoro-2-methylimidazo[1,2-a]pyridin-6-yl)-6-(5-methylpyrrolidin-3-yl)thieno[2,3-b]pyridine-2-carboxamide], the IC50 is below 100 nM.

As for `Cc1cn2cc(NC(=O)c3nc4ccc(C5CCCN(C)C5)nc4s3)cc(F)c2n1` (stereo not drawn) [Compound 134, N-(8-fluoro-2-methylimidazo[1,2-a]pyridin-6-yl)-5-(1-methylpiperidin-3-yl)thiazolo[5,4-b]pyridine-2-carboxamide], the IC50 is below 100 nM.

`Cc1cn2cc(NC(=O)c3nc4ccc(C5=C[C@@H](C)N[C@@H](C)C5)nc4s3)cc(F)c2n1` [Compound 140, 5-[(2S,6R)-2,6-dimethyl-1,2,3,6-tetrahydropyridin-4-yl]-N-(8-fluoro-2-methyl-imidazo[1,2-a]pyridin-6-yl)thiazolo[5,4-b]pyridine-2-carboxamide] yielded an IC50 below 100 nM.
